# Earlier results, collected in patent US20200268684A1, “COMPOSITION FOR TREATING AND PREVENTING NEUROLOGICAL DISEASES, NEUROINFLAMATION AND ALZHEIMER'S DISEASE” (HSRX GROUP, LLC, priority 2015, published 2020).
# Tested on: Aβ1-40 and Aβ1-42 peptides in SweAPP N2a cells
# Conditions: 3-30 μg/mL, 12 hours
structure (smiles),measurement,value
COc1cc(/C=C/C(=O)CC(=O)/C=C/c2ccc(O)c(OC)c2)ccc1O [curcumin],reduction of Aβ1-40 and Aβ1-42 peptides secreted,significant inhibition
